From US4774232A, “Bile-substituting method of treatment for the promotion of fat digestion” (Chinoin Gyogyszer Es Vegyeszeti Termak Ek Gyara Rt, priority 1985, dated 1988)

Columns and labels:
[1] = tested on: lipase (pancreas suspension); experiment: In vitro enzymatic hydrolysis of triglycerides: olive oil, pancreas suspension; type: biochemical; settings: for 0.005 N NaOH consumed: series Bile I, olive oil, pancreas suspension, 37° C.
Procedure: In an aqueous medium, lipase is capable to split triglycerides only at an extraordinarily low rate. Therefore, an organic solvent should be added to the system, by which the solubility of the triglycerides is increased, but the enzyme activity is diminished. Alternatively, some type of detergent, suitably bile has to be used. The effect of bile was compared to that of DIMEB at 37° C. in such a way that, the quantity of the formed free fatty acids in the samples taken from the reaction mixture at various intervals was titrated by using sodium hydroxide solution. The composition of the reaction mixture was as follows:
a total volume of 1.5 ml contained 4 μmoles of the substrate (triolein or olive oil), 10 mg of bovine serum albumin, 75 μmoles of sodium chloride, 50 μmoles of a phosphate buffer solution (pH 7.4) and 0.25 ml of an enzyme solution. A lipase of the Serva Company (in an 1 mg/10 ml solution) or a pancreas powder (0.5 g was suspended in 10 ml of distilled water and the slightly opalescent solution obtained after filtration was used) were employed as enzyme preparations.
The composition of the solutions to be tested were as follows:
0.5 ml of buffer+10 mg of serum albumin+3.54 mg of substrate+0.25 ml of enzyme solution plus
(a) 0.25 ml of diluted bile+0.50 ml of distilled water; or
(b) 50 mg of dimethyl-β-cyclodextrin dissolved in 0.75 ml of water; or […]

intact rats = experiment: Lipid absorption in intact rats after oral vegetable oil with DIMEB; type: in vivo; settings: for Plasma triglyceride concentration / Free fatty acid concentration in the plasma: normal rats; for Plasma triglyceride concentration: 2 ml vegetable oil + 50 mg DIMEB oral; for Free fatty acid concentration in the plasma: 2 ml vegetable oil + DIMEB oral
Procedure: The effect of DIMEB on the absorption of a vegetable oil was investigated in intact rats. The aim of this experiment was to elucidate whether the emulsification and intestinal absorption of the vegetable oil were stimulated by DIMEB in addition to the physiological bile functions. […] Thereafter, the triglyceride and free fatty acid concentration of the blood plasma were examined at various intervals. (Tables II and III). The triglyceride concentration of the plasma was determined by using the method of E. Van Handel [Clin. […] G. Dumcombe [Biochem.

[2] = tested on: bile duct-ligated rabbits; experiment: Substitution of the bile in bile duct-ligated rabbits (plasma triglyceride); type: in vivo, rabbits (Orychtolagus cuniculus); settings: for Plasma triglyceride concentration: rabbits after bile duct ligature
Procedure: The triglyceride concentration of the plasma was determined by using the method of E. Van Handel [Clin. Chem.. 7, 249 (1961)], whereas the concentration of the free fatty acids was measured according to W. G. Dumcombe [Biochem. J. 88, 7 (1963)].
The experimental animals were prevented in using their own bile for digestion of lipids by ligating their bile duct. Triglyceride concentration of the blood plasma was investigated after oral administration of lipids under normal pancreas secretion.
The experimental rabbits (Orychtolagus cuniculus) were kept at a standard food fo 10 days before the experiment. The organic material composition of the animal food was as follows:
The energy content of 100 g of the food amounted to […]. The animals were starved for 12 to 24 hours before the surgical operations but received water ad libitum. Within the same experimental series, rabbits of the same sex with a body weight of 2500 to 3000 g were used and the surgical operations were concurrently carried out. Pseudo-operated animals were used as controls. The operated experimental animals were used for the investigations after 48 hours. The test substances were orally administered to the animals through a gastric tube. The blood samples were taken from the auricular marginal vene.
In the first series of experiments, the first group of animals were given 3 ml of sunflower oil, the second group of animals were given 3 ml of sunflower oil and 200 mg of DIMEB dissolved in 3 ml of water. The control (speudo-operated) animals received 6 ml of water.
It is known that the digestion of the fats is a slower process than that of the oils. Thus, in the second series of experiments, the changes of the plasma triglyceride concentration of bile duct-ligated rabbits were followed after the oral administration of 5 ml of swine fat and 5 ml of swine fat together with 300 mg of DIMEB, respectively. The control group was given 5 ml of water (Table V). The quantity of the triglycerides was increased by about 100 percent as compared to the other two groups within one hour following the treatment. This tendency permanently remained during the experimental period lasting 6 hours.

mice = experiment: Toxicity on mice; type: in vivo; settings: doses up to 3000 mg/kg of body-weight

`COC[C@H]1O[C@@H]2O[C@H]3[C@H](O)[C@@H](OC)[C@@H](O[C@H]4[C@H](O)[C@@H](OC)[C@@H](O[C@H]5[C@H](O)[C@@H](OC)[C@@H](O[C@H]6[C@H](O)[C@@H](OC)[C@@H](O[C@H]7[C@H](O)[C@@H](OC)[C@@H](O[C@H]8[C@H](O)[C@@H](OC)[C@@H](O[C@H]1[C@H](O)[C@H]2OC)O[C@@H]8COC)O[C@@H]7COC)O[C@@H]6COC)O[C@@H]5COC)O[C@@H]4COC)O[C@@H]3COC` [DIMEB, heptakis(2,6-di-O-methyl)-β-cyclodextrin] was tested, and the “Effect on the action of lipase” value ([1]; in vitro, Table 1 overall) was “accelerate the action of lipase to a significant extent”, the “0.005 N NaOH consumed” value ([1]; reaction time 0.5 hour) was 1.74 mL and the “0.005 N NaOH consumed” value ([1]; reaction time 1 hour) was 2.00 mL. The “0.005 N NaOH consumed” value ([1]; reaction time 2 hour) was 2.20 mL, the “0.005 N NaOH consumed” value ([1]; reaction time 19 hour) was 4.77 mL and the “Increase of plasma triglyceride concentration” value (intact rats; intact rats, oil + 50 mg DIMEB, 4th hour) was “more than 100%”. The Plasma triglyceride concentration (intact rats; Hour 1) was 44 ± 6 mg/100 ml, the Plasma triglyceride concentration (intact rats; Hour 2.5) was 61 ± 18 mg/100 ml and the Plasma triglyceride concentration (intact rats; Hour 4) was 121 ± 7 mg/100 ml. The Plasma triglyceride concentration (intact rats; Hour 6) was 122 ± 15 mg/100 ml, the “Free fatty acid concentration in the plasma” value (from here on “Free fatty acid concentration”) (intact rats; Hour 1) was 326 ± 15 mg/100 ml and the “Free fatty acid concentration” value (intact rats; Hour 2.5) was 494 ± 183 mg/100 ml. The “Free fatty acid concentration” value (intact rats; Hour 4) was 641 ± 126 mg/100 ml, the “Free fatty acid concentration” value (intact rats; Hour 6) was 347 ± 65 mg/100 ml and the “Plasma triglyceride concentration compared with the group treated with oil alone” value ([2]; bile duct-ligated rabbits, 3 ml sunflower oil + 200 mg DIMEB, 6th hour) was “nearly three-fold”. The “Increase of the quantity of plasma triglycerides compared to the other two groups” value ([2]; bile duct-ligated rabbits, 5 ml swine fat + 300 mg DIMEB, within one hour following the treatment) was “about 100%”, the Plasma triglyceride concentration ([2]; 3 ml sunflower oil + 200 mg DIMEB oral, Hour 0) was 52 ± 19 mg/100 ml and the Plasma triglyceride concentration ([2]; 3 ml sunflower oil + 200 mg DIMEB oral, Hour 1) was 96 ± 32 mg/100 ml. For the same molecule, the Plasma triglyceride concentration ([2]; 3 ml sunflower oil + 200 mg DIMEB oral, Hour 2.5) was 87 ± 30 mg/100 ml, the Plasma triglyceride concentration ([2]; 3 ml sunflower oil + 200 mg DIMEB oral, Hour 4) was 61 ± 14 mg/100 ml and the Plasma triglyceride concentration ([2]; 3 ml sunflower oil + 200 mg DIMEB oral, Hour 6) was 125 ± 3 mg/100 ml. For the same molecule, the Plasma triglyceride concentration ([2]; 5 ml swine fat + 300 mg DIMEB oral, Hour 0) was 58 ± 19 mg/100 ml, the Plasma triglyceride concentration ([2]; 5 ml swine fat + 300 mg DIMEB oral, Hour 1) was 104 ± 30 mg/100 ml and the Plasma triglyceride concentration ([2]; 5 ml swine fat + 300 mg DIMEB oral, Hour 2.5) was 92 ± 26 mg/100 ml. The Plasma triglyceride concentration ([2]; 5 ml swine fat + 300 mg DIMEB oral, Hour 4) was 83 ± 25 mg/100 ml, the Plasma triglyceride concentration ([2]; 5 ml swine fat + 300 mg DIMEB oral, Hour 6) was 125 ± 3 mg/100 ml and the Toxic phenomena (mice) was “no toxic phenomena”.
